Experimental data from PubChem BioAssay (NCI).
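All cell lines were grown in 96-well plates and treated with compound for 48 hours. At the GI50, growth is halved. Definition used: TGI = concentration required for complete inhibition of growth.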

How the values were obtained:
Experiment in all cases: NCI anticancer screen, dose series, 48 h
[1] = system: SN12C renal
[2] = system: SW-620 colon
[3] = system: EKVX NSCLC
[4] = system: MALME-3M melanoma
[5] = system: HT29 colon
[6] = system: IGROV1 ovarian
[7] = system: U251 CNS
[8] = system: COLO 205 colon
[9] = system: K-562 leukemia
[10] = system: PC-3 prostate

Row | Compound | GI50 [1] | TGI [1] | GI50 [2] | TGI [2] | GI50 [3] | TGI [3] | GI50 [4] | TGI [4] | GI50 [5] | TGI [5] | GI50 [6] | TGI [6] | GI50 [7] | TGI [7] | GI50 [8] | TGI [8] | GI50 [9] | TGI [9] | GI50 [10] | TGI [10]
1 | O=C(/C=C/c1ccc(Cl)cc1)c1ccc(Nc2ccnc3cc(Cl)ccc23)cc1 | > 100 µM | > 100 µM | 6.05 µM | > 67.5 µM | > 84.6 µM | > 100 µM | > 100 µM | > 100 µM | 1.07 µM | > 100 µM | 48.6 µM | > 100 µM | 28.8 µM | > 100 µM | 31.9 µM | > 100 µM | 4.98 µM | > 100 µM | > 53.6 µM | > 100 µM
2 | CC(C)(C)OC(=O)N[C@H]1CC2(C=C(Cl)C(=O)C(Cl)=C2)OC1=O | – | 33.3 µM | – | 19.1 µM | – | 40.9 µM | – | 25.9 µM | – | 27.9 µM | – | 36 µM | – | 45.2 µM | – | 14.9 µM | – | 7.41 µM | – | 32.1 µM
3 | Cc1cc2c(cc1Cl)SC(N(N(C)C)S(=O)(=O)c1ccc(Cl)cc1)=NS2(=O)=O | 24.3 µM | 72 µM | 32.5 µM | > 100 µM | 26.6 µM | 79.6 µM | 22 µM | 62 µM | 27.1 µM | 99.2 µM | 31.8 µM | > 100 µM | 26.3 µM | > 100 µM | 44 µM | > 100 µM | 31.8 µM | > 100 µM | 22.4 µM | > 100 µM
4 | C=C1NC(=O)C(C(C)CC)NC(=O)C2CSCC(NC(=O)CCC(=O)O)C(=O)NC(Cc3ccccc3)C(=O)NC(C)C(=O)NC(CC(C)CC)C(=O)NC(C(=O)NC(Cc3ccccc3)C(=O)N3CCCC3C(=O)N2)C(C)OC(=O)C(CO)NC(=O)C(C(O)COC)N(C)C(=O)C(C(C)C)NC(=O)C(CC(C)CC)NC1=O (stereo not given) | 0.0707 µM | > 6 µM | 0.0175 µM | > 6 µM | 0.046 µM | > 6 µM | 0.0326 µM | > 6 µM | 0.0165 µM | > 6 µM | 0.112 µM | > 6 µM | 0.0101 µM | > 6 µM | 0.0129 µM | 0.0557 µM | 0.0124 µM | > 6 µM | 0.0265 µM | > 6 µM
5 | Nc1ncnc2n[nH]c(Nc3ccc(F)cc3)c12 | 35.6 µM | > 100 µM | 18.2 µM | > 100 µM | 33.6 µM | > 100 µM | 30.6 µM | > 100 µM | 25.3 µM | > 100 µM | 4.73 µM | 32.1 µM | 28.6 µM | > 100 µM | 17.3 µM | 66.1 µM | 15.6 µM | > 100 µM | 20.8 µM | > 100 µM
6 | OCc1ccc(-c2ccc(-c3ccc(CO)s3)o2)s1 | – | 81 µM | – | > 100 µM | – | > 96.4 µM | – | > 88.8 µM | – | > 95 µM | – | 0.676 µM | – | 23.4 µM | – | 3.01 µM | – | 38.3 µM | – | > 100 µM
7 | N=Nc1c(OC(=O)Nc2cccc(Cl)c2)[nH]c2ccccc12 | – | 14.8 µM | – | 24.6 µM | – | 16.8 µM | – | 26.5 µM | – | 17.7 µM | – | 21.4 µM | – | 18.9 µM | – | 19.4 µM | – | > 52.8 µM | – | 14.6 µM
8 | CCCCCCCC(=O)SCC/C=C/[C@@H]1CC(=O)NCc2cc(ccn2)C2=N[C@@](C)(CS2)C(=O)N[C@@H](C(C)C)C(=O)O1 | 0.0641 µM | > 33.3 µM | 0.0749 µM | 2.49 µM | 0.0376 µM | > 33.3 µM | 0.00864 µM | > 33.3 µM | 0.0112 µM | > 33.3 µM | 0.00956 µM | 0.132 µM | 0.0291 µM | 0.309 µM | 0.0513 µM | 0.147 µM | 0.0248 µM | > 33.3 µM | 0.0124 µM | > 33.3 µM
9 | CC[C@H](Nc1ncnc2nc[nH]c12)c1oc2ccccc2c(=O)c1-c1cccc(F)c1 | 19.7 µM | > 100 µM | 32.5 µM | > 100 µM | 31.8 µM | > 100 µM | 25.1 µM | > 100 µM | 28.3 µM | > 100 µM | 15.2 µM | 53.8 µM | 32.2 µM | > 100 µM | 37.4 µM | > 100 µM | 17.4 µM | > 100 µM | 12.4 µM | > 100 µM
10 | Cc1ccccc1S(=O)(=O)OC1NS(=O)(=O)c2ccccc21 (stereo not given) | – | > 100 µM | – | > 100 µM | – | > 100 µM | – | > 100 µM | – | > 100 µM | – | > 100 µM | – | > 100 µM | – | > 100 µM | – | > 100 µM | – | > 100 µM
